Laboratory results taken from US20240368150A1 (Hoffmann-La Roche Inc., priority 2021, published 2024).
Read-outs that look alike come from different tables or passages of the source.

Key:
primary human T-cells [1] = assay: Proliferation assay after 5 days (CellTiter-Glo, CD3 stimulation; PBS counter screen); assay type: cell-based; details: CD3 stimulation; for Emax / Emax proliferation (% activation): 5 days, normalized to reference compound A1 as stimulator control = 100%, DMSO neutral control; for Emax: read-out: Emax proliferation (% activation); for EC50: primary human T-cells, CellTiter-Glo after 5 days, EC50 of fitted sigmoidal curve, read-out: Tcell Proliferation CD3 EC50
How it was run: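 Primary human T-cells, with or without CD3 stimulation, exposed to compounds for 5 days; cell number read as ATP by CellTiter-Glo 2.0 luminescence after 45 min equilibration and 15 min reagent incubation at room temperature. Compounds activating unstimulated cells or reducing viability were flagged.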

MV-3 cells = assay: T-cell - TCB - MV3 killing assay (MCSP-TCB, RFP object count by Incucyte); assay type: cell-based, human; details: 5 d; for Emax: read-out: MSCP TCB killing MV-3 cells 5 d Emax; for EC50: primary human T-cells + MCSP-TCB, MV-3 RFP cells, read-out: MSCP TCB killing MV-3 cells 5 d EC50
primary human T-cells [2] = test system: primary human T-cells
[3] = Homo sapiens, MV-3, 120 h, normalized: MCSP-TCB only = neutral control, 20 μM reference compound A1 = 100%

| Compound | EC50 (primary human T-cells [2]) [nM] | Emax (primary human T-cells [1]; Homo sapiens, T-cell, 120 h) [%] | EC50 (primary human T-cells [1]; Homo sapiens, T-cell, 120 h) [nM] | Emax (MV-3 cells; [3]) [%] | EC50 (MV-3 cells) [nM] | EC50 (primary human T-cells [1]) [nM] | EC50 (MV-3 cells; Homo sapiens, MV-3, 120 h) [nM] | Emax proliferation (% activation) (primary human T-cells [1]) | MSCP TCB killing MV-3 cells 5 d Emax (MV-3 cells; normalized: MCSP-TCB only = neutral control, 20 μM reference compound A1 = 100%) [%] |
| --- | --- | --- | --- | --- | --- | --- | --- | --- | --- |
| CCc1cn(-c2cc3c(cc2F)S(=O)(=O)C[C@H](N)C(=O)N3Cc2ccc(Cl)cc2)nn1 [Example 3, (3R)-3-amino-5-[(4-chlorophenyl)methyl]-7-(4-ethyltriazol-1-yl)-8-fluoro-1,1-dioxo-2,3-dihydro-1λ^6,5-benzothiazepin-4-one] | 12000 | 68 | 4300 | 100 | 1550 | – | – | – | – |
| CC(C)(C)n1nnc(-c2cc3c(cc2F)S(=O)(=O)C[C@H](N)C(=O)N3Cc2ccc(Cl)cc2)n1 [Example 8, (3R)-3-amino-7-(2-tert-butyltetrazol-5-yl)-5-[(4-chlorophenyl)methyl]-8-fluoro-1,1-dioxo-2,3-dihydro-1λ^6,5-benzothiazepin-4-one] | 93.8 | 130 | 84.5 | 96 | – | – | 70 | – | – |
| CN1CCC(n2nnc(-c3cc4c(cc3F)S(=O)(=O)C[C@H](N)C(=O)N4Cc3ccc(Cl)cc3)n2)C1 (stereo partly drawn) [Example 12, (3R)-3-amino-5-[(4-chlorophenyl)methyl]-8-fluoro-7-[2-(1-methylpyrrolidin-3-yl)tetrazol-5-yl]-1,1-dioxo-2,3-dihydro-1λ^6,5-benzothiazepin-4-one] | 967 | 84 | 1020 | 96 | 910 | – | – | – | – |
| CCc1noc(-c2cc3c(cc2F)S(=O)(=O)C[C@H](N)C(=O)N3Cc2ccc(Cl)cc2)n1 [Example 41, (3R)-3-Amino-5-[(4-chlorophenyl)methyl]-7-(3-ethyl-1,2,4-oxadiazol-5-yl)-8-fluoro-1,1-dioxo-2,3-dihydro-1λ^6,5-benzothiazepin-4-one] | – | 61 | 9360 | 92 | 230 | – | – | – | – |
| CC(C)(C)c1nnc(-c2cc3c(cc2F)SC[C@H](N)C(=O)N3Cc2ccc(OC(F)(F)F)cc2)o1 [Example 54, (3R)-3-amino-7-(5-tert-butyl-1,3,4-oxadiazol-2-yl)-8-fluoro-5-[[4-(trifluoromethoxy)phenyl]methyl]-2,3-dihydro-1,5-benzothiazepin-4-one] | – | 116 | 1120 | 123 | – | – | 300 | – | – |
| N[C@H]1CS(=O)(=O)c2cc(F)c(-c3nnc(CC(F)(F)F)o3)cc2N(Cc2ccc(OC(F)(F)F)cc2)C1=O [Example 56, (3R)-3-Amino-8-fluoro-1,1-dioxo-7-[5-(2,2,2-trifluoroethyl)-1,3,4-oxadiazol-2-yl]-5-[[4-(trifluoromethoxy)phenyl]methyl]-2,3-dihydro-1λ^6,5-benzothiazepin-4-one] | – | 136 | 414 | 123 | 110 | – | – | – | – |
| COC(=O)N1CC2CC(c3nc(-c4cc5c(cc4F)S(=N)(=O)C[C@H](N)C(=O)N5Cc4ccc(OC(F)(F)C(F)F)cc4)no3)(C2)C1 (stereo partly drawn) [Example 520, methyl 1-[3-[(3R)-3-amino-8-fluoro-1-imino-1,4-dioxo-5-[[4-(1,1,2,2-tetrafluoroethoxy)phenyl]methyl]-2,3-dihydro-1λ^6,5-benzothiazepin-7-yl]-1,2,4-oxadiazol-5-yl]-3-azabicyclo[3.1.1]heptane-3-carboxylate] | 1150 | 42 | 267 | – | – | – | – | – | – |
| (3R)-3-amino-5-[(4-chlorophenyl)methyl]-7-[5-(2,2-difluoromorpholin-4-yl)-1,3,4-oxadiazol-2-yl]-1,1-dioxo-2,3-dihydro-1λ^6,5-benzothiazepin-4-one [Example 413] | 1080 | – | – | – | – | 193 | – | 160 | – |
| (3R)-3-amino-7-[5-[4-(chloromethyl)-4-(hydroxymethyl)cyclohexyl]-1,3,4-oxadiazol-2-yl]-5-[(4-chlorophenyl)methyl]-8-fluoro-1,1-dioxo-2,3-dihydro-1λ^6.5-benzothiazepin-4-one [Example 482] | 1250 | – | – | – | – | 786 | – | 106 | – |

Further lines, with some results ahead:

| EC50 (primary human T-cells [2]) [nM] | Compound | Emax (primary human T-cells [1]; Homo sapiens, T-cell, 120 h) [%] | EC50 (primary human T-cells [1]; Homo sapiens, T-cell, 120 h) [nM] | Emax (MV-3 cells; [3]) [%] | EC50 (MV-3 cells) [nM] | EC50 (primary human T-cells [1]) [nM] | EC50 (MV-3 cells; Homo sapiens, MV-3, 120 h) [nM] | Emax proliferation (% activation) (primary human T-cells [1]) | MSCP TCB killing MV-3 cells 5 d Emax (MV-3 cells; normalized: MCSP-TCB only = neutral control, 20 μM reference compound A1 = 100%) [%] |
| --- | --- | --- | --- | --- | --- | --- | --- | --- | --- |
| 686 | CC(C)(CO)c1noc(-c2cc3c(cc2F)S(=O)(=O)C[C@H](N)C(=O)N3Cc2ccc(Cl)cc2)n1 (racemic) [Example 46] | 94 | 1820 | 83 | 1040 | – | – | – | – |
| 793 | N[C@H]1C[S+]([O-])c2cc(F)c(-c3noc(N4CCOC5(CC5)C4)n3)cc2N(Cc2ccc(Cl)cc2)C1=O (single isomer, unassigned; epimer a) [Example 211] | – | – | 86 | – | 326 | 45 | – | – |
| 594 | CC(C)(C)c1nnc(-c2cc3c(cc2F)[S+]([O-])C[C@H](N)C(=O)N3Cc2ccc(Cl)cc2)o1 (single isomer, unassigned; epimer b) [Example 187] | – | – | – | 1640 | 1540 | – | 92 | 57 |
| 472 | CC(C)(C)n1nnc(-c2ccc3c(c2)N(Cc2ccc(Cl)cc2)C(=O)[C@@H](N)CS3(=O)=O)n1 [Example 36] | 86 | 404 | 81 | 390 | – | – | – | – |
| 2320 | CC(C)(C)c1noc(-c2cc3c(cc2F)S(=O)(=O)C[C@H](N)C(=O)N3Cc2ccc(Cl)cc2)n1 [Example 43, (3R)-3-Amino-7-(3-tert-butyl-1,2,4-oxadiazol-5-yl)-5-[(4-chlorophenyl)methyl]-8-fluoro-1,1-dioxo-2,3-dihydro-1λ^6,5-benzothiazepin-4-one] | 143 | 265 | 102 | – | – | 40 | – | – |
| 2180 | N[C@H]1CS(=O)(=O)c2cc(F)c(-c3nc(CC(F)(F)F)no3)cc2N(Cc2ccc(Cl)cc2)C1=O [Example 49, (3R)-3-amino-5-[(4-chlorophenyl)methyl]-8-fluoro-1,1-dioxo-7-[3-(2,2,2-trifluoroethyl)-1,2,4-oxadiazol-5-yl]-2,3-dihydro-1λ^6,5-benzothiazepin-4-one] | 112 | 585 | 100 | 170 | – | – | – | – |
| > 10000 | Cc1cc2c(cc1-c1nnc(C3CN(C)CC(F)(F)C3)o1)N(Cc1ccc(Cl)cc1)C(=O)[C@@H](N)CS2(=O)=O (stereo partly drawn) [Example 524, (3R)-3-amino-5-[(4-chlorophenyl)methyl]-7-[5-(5,5-difluoro-1-methyl-3-piperidyl)-1,3,4-oxadiazol-2-yl]-8-methyl-1,1-dioxo-2,3-dihydro-1λ^6,5-benzothiazepin-4-one] | 80 | 4270 | – | – | – | – | – | – |
| 3510 | CCc1ncn(-c2cc3c(cc2F)S(=O)(=O)C[C@H](N)C(=O)N3Cc2ccc(Cl)cc2)n1 [Example 525, (3R)-3-amino-5-[(4-chlorophenyl)methyl]-7-(3-ethyl-1,2,4-triazol-1-yl)-8-fluoro-1,1-dioxo-2,3-dihydro-1λ^6,5-benzothiazepin-4-one] | 67 | 935 | – | – | – | – | – | – |
| 292 | CC(C)(C)c1cn(-c2cc3c(cc2F)S(=O)(=O)C[C@H](N)C(=O)N3Cc2ccc(Cl)cc2)cn1 [Example 527] | – | – | – | – | 1280 | – | 69 | – |
